Legend:
Mu-type opioid receptor [1] = biological target: T1, Mu-type opioid receptor (Homo sapiens, UniProt P35372); test: Agonist activity at human recombinant mu opioid receptor expressed in CHO cell membranes after 60 mins by [35S]GTPgammaS binding assay relative to DAMGO; assay type: functional
[2] = biological target: T2, Delta-type opioid receptor (Homo sapiens, UniProt P41143); test: Displacement of [3H]Cl-DPDPE from human recombinant delta opioid receptor expressed in CHO cell membranes after 60 mins by scintillation counting method
T2 sequence (P41143 whole entry): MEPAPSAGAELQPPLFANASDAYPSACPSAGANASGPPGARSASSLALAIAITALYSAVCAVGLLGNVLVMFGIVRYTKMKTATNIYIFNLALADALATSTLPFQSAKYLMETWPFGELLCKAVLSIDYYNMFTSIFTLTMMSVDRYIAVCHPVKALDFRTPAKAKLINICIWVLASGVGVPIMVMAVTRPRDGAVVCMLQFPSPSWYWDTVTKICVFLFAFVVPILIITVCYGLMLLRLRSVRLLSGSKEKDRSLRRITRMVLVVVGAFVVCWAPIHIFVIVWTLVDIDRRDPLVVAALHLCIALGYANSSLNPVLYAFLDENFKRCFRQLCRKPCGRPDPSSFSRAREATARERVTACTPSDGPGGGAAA

Mu-type opioid receptor [3] = biological target: T1, Mu-type opioid receptor; test: Displacement of [3H]DAMGO from human recombinant mu opioid receptor expressed in CHO cell membranes after 60 mins by scintillation counting method
[4] = biological target: T2, Delta-type opioid receptor; test: Agonist activity at human recombinant delta opioid receptor expressed in CHO cell membranes after 60 mins by [35S]GTPgammaS binding assay relative to DPDPE; assay type: functional
[5] = biological target: T2, Delta-type opioid receptor; test: Agonist activity at human recombinant delta opioid receptor expressed in CHO cell membranes after 60 mins by [35S]GTPgammaS binding assay; assay type: functional
Mu-type opioid receptor [6] = biological target: T1, Mu-type opioid receptor; test: Agonist activity at human recombinant mu opioid receptor expressed in CHO cell membranes after 60 mins by [35S]GTPgammaS binding assay; assay type: functional
[7] = biological target: T3, Kappa-type opioid receptor (Homo sapiens, UniProt P41145); test: Displacement of [3H]U69593 from human recombinant kappa opioid receptor expressed in CHO cell membranes after 60 mins by scintillation counting method
T3 sequence (P41145 whole entry): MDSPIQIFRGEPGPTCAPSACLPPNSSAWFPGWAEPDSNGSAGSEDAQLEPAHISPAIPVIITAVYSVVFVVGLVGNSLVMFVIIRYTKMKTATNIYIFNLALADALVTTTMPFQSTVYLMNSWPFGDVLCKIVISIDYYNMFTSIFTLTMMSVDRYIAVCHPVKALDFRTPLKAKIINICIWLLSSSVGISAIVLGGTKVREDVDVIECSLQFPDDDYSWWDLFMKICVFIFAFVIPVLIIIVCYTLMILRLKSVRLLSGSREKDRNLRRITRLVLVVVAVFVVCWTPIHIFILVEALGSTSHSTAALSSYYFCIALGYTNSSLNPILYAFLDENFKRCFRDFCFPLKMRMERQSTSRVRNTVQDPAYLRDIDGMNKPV

[8] = biological target: T2, Delta-type opioid receptor; test: Antagonist activity at human recombinant delta opioid receptor expressed in CHO cell membranes assessed as inhibition of DPDPE-induced response after 60 mins by [35S]GTPgammaS binding assay; assay type: functional
Mu-type opioid receptor [9] = biological target: T1, Mu-type opioid receptor; test: Antagonist activity at human recombinant mu opioid receptor expressed in CHO cell membranes assessed as inhibition of DAMGO-induced response after 60 mins by [35S]GTPgammaS binding assay; assay type: functional
[10] = biological target: T3, Kappa-type opioid receptor; test: Agonist activity at human recombinant kappa opioid receptor expressed in CHO cell membranes at 10 uM after 60 mins by [35S]GTPgammaS binding assay relative to U69593; assay type: functional
Nociceptin receptor [11] = biological target: T4, Nociceptin receptor (Homo sapiens, UniProt P41146); test: Agonist activity at human recombinant NOPR receptor expressed in CHO cell membranes at 10 uM after 60 mins by [35S]GTPgammaS binding assay relative to nociceptin; assay type: functional
T4 sequence (P41146 whole entry): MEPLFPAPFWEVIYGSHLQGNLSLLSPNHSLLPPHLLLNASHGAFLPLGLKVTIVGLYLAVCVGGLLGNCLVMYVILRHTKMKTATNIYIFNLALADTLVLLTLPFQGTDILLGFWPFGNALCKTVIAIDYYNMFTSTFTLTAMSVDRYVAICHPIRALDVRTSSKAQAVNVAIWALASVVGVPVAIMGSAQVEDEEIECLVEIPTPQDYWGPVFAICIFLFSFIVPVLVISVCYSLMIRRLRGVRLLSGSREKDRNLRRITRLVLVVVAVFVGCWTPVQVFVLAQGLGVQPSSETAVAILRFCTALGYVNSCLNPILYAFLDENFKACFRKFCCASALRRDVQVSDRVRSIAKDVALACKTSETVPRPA

Mu-type opioid receptor [12] = biological target: T1, Mu-type opioid receptor; test: Agonist activity at human recombinant mu opioid receptor expressed in CHO cell membranes at 10 uM after 60 mins by [35S]GTPgammaS binding assay relative to DAMGO; assay type: functional
Homo sapiens [13] = organism: Homo sapiens; test: Selectivity for human recombinant delta opioid receptor over human kappa opioid receptor
Homo sapiens [14] = organism: Homo sapiens; test: Selectivity for human recombinant delta opioid receptor over human mu opioid receptor
[15] = biological target: T3, Kappa-type opioid receptor; test: Antagonist activity at human recombinant kappa opioid receptor expressed in CHO cell membranes assessed as inhibition of U69593-induced response after 60 mins by [35S]GTPgammaS binding assay; assay type: functional
Nociceptin receptor [16] = biological target: T4, Nociceptin receptor; test: Displacement of [3H]nociceptin from human recombinant NOP receptor expressed in CHO cell membranes after 60 mins by scintillation counting method
[17] = biological target: T3, Kappa-type opioid receptor; test: Agonist activity at human recombinant kappa opioid receptor expressed in CHO cell membranes after 60 mins by [35S]GTPgammaS binding assay; assay type: functional
[18] = biological target: T3, Kappa-type opioid receptor; test: Agonist activity at human recombinant kappa opioid receptor expressed in CHO cell membranes after 60 mins by [35S]GTPgammaS binding assay relative to U69593; assay type: functional
Homo sapiens [19] = organism: Homo sapiens; test: Selectivity for human recombinant mu opioid receptor over human kappa opioid receptor
Homo sapiens [20] = organism: Homo sapiens; test: Selectivity for human recombinant mu opioid receptor over human delta opioid receptor

T1 sequence (P35372 whole entry): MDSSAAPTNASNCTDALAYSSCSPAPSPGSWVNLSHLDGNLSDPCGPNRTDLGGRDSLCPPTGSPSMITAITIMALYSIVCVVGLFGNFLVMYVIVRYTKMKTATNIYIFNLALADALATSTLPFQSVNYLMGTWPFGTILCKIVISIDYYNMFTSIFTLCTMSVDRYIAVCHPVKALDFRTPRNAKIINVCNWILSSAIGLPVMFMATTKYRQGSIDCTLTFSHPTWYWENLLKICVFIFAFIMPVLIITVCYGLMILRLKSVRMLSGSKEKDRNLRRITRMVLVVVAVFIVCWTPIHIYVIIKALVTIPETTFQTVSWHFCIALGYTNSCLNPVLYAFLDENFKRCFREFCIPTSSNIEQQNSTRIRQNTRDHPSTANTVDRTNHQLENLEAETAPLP

| SMILES | Activity (Mu-type opioid receptor [1]) | Ki [2] | Ki (Mu-type opioid receptor [3]) | Activity [4] | EC50 [5] | EC50 (Mu-type opioid receptor [6]) | Ki [7] | Ke (Mu-type opioid receptor [9]) | Smax [10] | Smax (Nociceptin receptor [11]) | Smax (Mu-type opioid receptor [12]) | Ke [15] | other results |
| --- | --- | --- | --- | --- | --- | --- | --- | --- | --- | --- | --- | --- | --- |
| CN1C(=O)CCC2=C1[C@@H]1Oc3c(O)ccc4c3[C@@]13CCN(C)[C@H](C4)[C@]3(O)C2 | 40% | 9.39 nM | 1.23 nM | 67% | 25.5 nM | 80 nM | 20.4 nM | – | – | – | – | – | – |
| CCOC(=O)Cc1c2c(n(Cc3ccccc3)c1O)[C@@H]1Oc3c(O)ccc4c3[C@@]13CCN(CC1CC1)[C@H](C4)[C@]3(O)C2 | – | 10 nM | 8.65 nM | – | – | – | 4.79 nM | 6.61 nM | – | – | – | – | Ke [8]: 6.79 nM |
| O=C1CCC2=C([C@@H]3Oc4c(O)ccc5c4[C@@]34CCN(CC3CC3)[C@H](C5)[C@]4(O)C2)N1Cc1cccc(Cl)c1 | – | – | – | – | – | – | – | – | -11% | 7% | -1% | – | – |
| Cc1[nH]c2c(c1Cc1ccccc1)C[C@@]1(O)[C@H]3Cc4ccc(O)c5c4[C@@]1(CCN3CC1CC1)[C@H]2O5 | – | – | – | – | – | – | – | – | – | – | – | – | Selectivity ratio (Homo sapiens [13]): 40; Selectivity ratio (Homo sapiens [14]): 40 |
| CN1C(=O)[C@@H](CCO)CC2=C1[C@@H]1Oc3c(O)ccc4c3[C@@]13CCN(C)[C@H](C4)[C@]3(O)C2 | 37% | 9.25 nM | 12.8 nM | 80% | 30.6 nM | 709 nM | 182 nM | – | – | – | – | 2140 nM | – |
| CN1CC[C@]23c4c5ccc(O)c4O[C@H]2C2=C(C[C@@H](CCO)C(=O)N2Cc2ccccc2)C[C@@]3(O)[C@H]1C5 | – | 1.02 nM | 2.03 nM | 73% | 2.37 nM | – | 4.68 nM | 32.9 nM | – | – | – | 29.3 nM | – |
| CN1CC[C@]23c4c5ccc(O)c4O[C@H]2C2=C(C[C@H](CCO)C(=O)N2Cc2ccccc2)C[C@@]3(O)[C@H]1C5 | 36% | 2.85 nM | 3 nM | 68% | 10.6 nM | 94.9 nM | 15.6 nM | – | – | – | – | 16.8 nM | – |
| O=C1CCC2=C([C@@H]3Oc4c(O)ccc5c4[C@@]34CCN(CC3CC3)[C@H](C5)[C@]4(O)C2)N1CC1CCCCC1 | – | 0.28 nM | 0.11 nM | – | – | – | 0.33 nM | – | -5% | 5% | -1% | – | Ki (Nociceptin receptor [16]): 880 nM |
| O=C1CCC2=C([C@@H]3Oc4c(O)ccc5c4[C@@]34CCN(CC3CC3)[C@H](C5)[C@]4(O)C2)N1CCc1ccccc1 | – | – | – | – | – | – | – | – | -10% | 5% | 1% | – | Ki (Nociceptin receptor [16]): 1500 nM |
| C[C@@H]1CC2=C([C@@H]3Oc4c(O)ccc5c4[C@@]34CCN(CC3CC3)[C@H](C5)[C@]4(O)C2)N(Cc2ccccc2)C1=O | – | 0.85 nM | 0.56 nM | – | – | – | 0.95 nM | 0.5 nM | – | – | – | 0.23 nM | Ke [8]: 0.23 nM |
| CN1C(=O)[C@H](CCO)CC2=C1[C@@H]1Oc3c(O)ccc4c3[C@@]13CCN(C)[C@H](C4)[C@]3(O)C2 | 36% | 3.59 nM | 2.37 nM | 66% | 11.8 nM | 163 nM | 48.7 nM | – | – | – | – | 321 nM | – |
| O=C1[C@H](CCO)CC2=C([C@@H]3Oc4c(O)ccc5c4[C@@]34CCN(CC3CC3)[C@H](C5)[C@]4(O)C2)N1Cc1ccccc1 | – | 0.7 nM | 0.43 nM | – | – | – | 1.29 nM | 0.35 nM | – | – | – | 0.73 nM | Ke [8]: 0.47 nM |
| O=C1CCC2=C([C@@H]3Oc4c(O)ccc5c4[C@@]34CCN(CC3CC3)[C@H](C5)[C@]4(O)C2)N1Cc1ccccc1 | – | 0.36 nM | 0.18 nM | – | – | – | 0.15 nM | – | -20% | 12% | -1% | – | Ki (Nociceptin receptor [16]): 1300 nM |
| CCOC(=O)Cc1c2c(n(Cc3ccccc3)c1O)[C@@H]1Oc3c(O)ccc4c3[C@@]13CCN(C)[C@H](C4)[C@]3(O)C2 | 86% | 82.1 nM | 13.2 nM | 74% | 42.5 nM | 70.5 nM | 159 nM | – | – | – | – | – | EC50 [17]: 434 nM; Activity [18]: 23% |
| CN1CC[C@]23c4c5ccc(O)c4O[C@H]2C2=C(CCC(=O)N2Cc2ccccc2)C[C@@]3(O)[C@H]1C5 | 52% | 0.92 nM | 0.29 nM | – | 3 nM | 4.97 nM | 1.98 nM | – | – | – | – | 21.3 nM | Ratio Ki (Homo sapiens [19]): 3; Ratio Ki (Homo sapiens [20]): 3 |
| O=C1CCC2=C([C@@H]3Oc4c(O)ccc5c4[C@@]34CCN(CC3CC3)[C@H](C5)[C@]4(O)C2)N1Cc1cccc(F)c1 | – | – | – | – | – | – | – | – | -9% | 7% | -1% | – | – |
| C[C@H]1CC2=C([C@@H]3Oc4c(O)ccc5c4[C@@]34CCN(CC3CC3)[C@H](C5)[C@]4(O)C2)N(Cc2ccccc2)C1=O | – | 1.58 nM | 0.42 nM | – | – | – | 0.71 nM | 0.6 nM | – | – | – | 2.03 nM | Ke [8]: 0.57 nM |
| C=CCN1CC[C@]23c4c5ccc(O)c4O[C@H]2C2=C(CCC(=O)N2CCc2ccccc2)C[C@@]3(O)[C@H]1C5 | – | – | – | – | – | – | – | – | -15% | 4% | -2% | – | – |
| O=C1[C@@H](CCO)CC2=C([C@@H]3Oc4c(O)ccc5c4[C@@]34CCN(CC3CC3)[C@H](C5)[C@]4(O)C2)N1Cc1ccccc1 | – | 2.38 nM | 1.54 nM | – | – | – | 2.76 nM | 1.62 nM | – | – | – | 2.22 nM | Ke [8]: 0.93 nM |

Source: ChEMBL document CHEMBL3352469, “Pyrrolo- and pyridomorphinans: non-selective opioid antagonists and delta opioid agonists/mu opioid partial agonists” (Bioorg Med Chem, 2014)
